From ChEMBL document CHEMBL1147188, “Metal complexes of retinoid derivatives with antiproliferative activity: synthesis, characterization and DNA interaction studies” (Eur J Med Chem, 2007) come the findings set out here.

Data set [1] in a line: Partition coefficient, log P of the compound. The conditions noted are these: octanol/water. Format: physicochemical.
The species entered for the next data set is Homo sapiens. The data set is described as follows: Binding affinity to DNA.
A further data set relates to PBMC. The data set is described as follows: Growth inhibition of human PBMC after 48 hrs by XTT assay. Type of data set: cell-based.

As to `CC1=C(/C=C/C(C)=C\C=C\C(C)=C\C=N/NC(N)=S)C(C)(C)CCC1`, the logP (in general, the decadic logarithm of the partition coefficient of the neutral form, usually between octanol and water) in data set [1] came to 1.05. For the same molecule, the Kb in the data set filed under Homo sapiens is 8.3 10^5/M. Also, the Activity result in the data set on PBMC is recorded as “Non-toxic”.
